Values quoted from earlier work as cited in patent US20120282652A1, “PREPARATION OF PEPTIDE MIXTURES BY PROTEASE CATALYSIS DESIGNED TO PROVIDE USEFUL BIOLOGICAL AND PHYSICAL PROPERTIES” (priority 2011, published 2012).

Key:
[1] = test system: S. aureus, E. coli, and P. aeruginosa; settings: peptide synthesized by traditional chemical methods
[2] = Cheng et al.

Substance: LKLLKKLLKKLKKLLKKL [amphipathic model peptide synthesized by traditional chemical methods]
- antimicrobial activity compared with diblock KKKKKKKKKLLLLLLLLL or alternating KLKLKLKLKLKLKLKLKL [1]: better antimicrobial activity

Substance: [γ-Glu-Cys]2-Gly
- Cd(II) at which binding saturated (absorbance at 240 nm, Mehra): 0.5 equivalents
- Cd(II)/peptide ratio up to which absorption intensity is enhanced (absorption at 250 nm, Kobayashi and Yoshimura): ≤ 1.4

Substance: [γ-Glu-Cys]4-Gly [[(γ-EC)4]-Gly]
- order of binding efficiency of the metals [2]: Cd>Zn>Ni>Co
